Results reported in ChEMBL document CHEMBL1159371, “Trisphaerolide A, a novel polyketide from the Dominican sponge Erylus trisphaerus” (J Nat Prod, 2003).
≈ marks a conversion by molar mass, not a printed value. Calls of active or inactive are those of the source. The rule behind the calls is not given here.

Assays:
[1] = test system: MCF7; experiment: Cytotoxicity against human MCF7 cells; assay type: functional, cell-based
[2] = test system: MCF7; experiment: Cell cycle arrest in human MCF7 cells by G2 checkpoint inhibition assay; assay type: functional, cell-based

Q: `C[C@]1(O)CC(=O)O[C@](C)(CCCCCCCCC/C=C/Cc2ccccc2)C1` [TRISPHAEROLIDE A] was tested. Which IC50 [1] did it give?
A: 30 µg/mL (≈ 77.6 µM)

Q: And the Activity [2]?
A: inactive
